Measurements taken from US6004905A, “Hyperabas: biologically active abscisic acid analogs with unsaturated carbon substituents at the 8'-methyl or 9'-methyl carbon atoms” (National Research Council of Canada, priority 1998, dated 1999).
pEC50, pIC50: −log10 of the molar value. “Also recorded” adds a separate entry of the source. Read-outs that look alike come from different tables or passages of the source.

Assays:
[1] = tested on: wheat seedlings; experiment: Transpiration in wheat seedlings; type: in vivo, Triticum aestivum L. cv Katepwa; details: for reduction in transpiration: (+)-forms of methyl esters, 100 μM, 3 hours (FIG. 8); for reduction of transpiration (summary in words): in vivo; for pEC50: Triticum aestivum, 3 h, intact wheat seedlings, three hours after application, read-out: concentration to reduce the transpiration rate to 50% (TR50)
Excerpt: ABA is a key signal molecule involved in regulating transpiration in plants (W. J. Davies T. A. Mansfield 1988 Abscisic acid and drought resistance in plants ISI Atlas of Science: Animal and Plant Sciences 0894-3761 p. 263-269). […] This difference in activity is shown in FIG. 4 in which the % transpiration effected by the (+)-forms of methyl esters of ABA (214) , 8'-methyl (370) and 8'-methylene ABA (357) are compared. The structures are as follows: [drawing 13] Seed Germination
The transpiration rate of 6 to 10 day old wheat seedlings (Triticum aestivum L. cv Katepwa) was measured as previously described (Rose et al.^7, 1996 incorporated herein by reference). Antitranspirant activity of the analogs (prepared as a 1% ethanol solution in water) was measured over a range of concentrations to determine the concentration where the transpiration rate of the wheat seedling is reduced by 50%. The transpiration rate (μMol H2 O/cm^2 s) was calculated and then given as a percentage of the initial transpiration rate of the plant (typically 0.28-0.35 μMol H2 O/cm^2 s), corrected for the effect of the control (1% ethanol).
ABA is a key signal molecule involved in regulating transpiration in plants. We had previously determined that esters were as active as acids in this assay (data not shown) so the effect of the methyl esters of natural ABA (+)-^8 '-methylene ABA and 8'-methyl ABA on transpiration in intact wheat seedlings was compared three hours after application. […] The difference in responses may be due to reduced uptake of the 8'-methyl ABA in the intact wheat seedling.

[2] = tested on: suspension-cultured corn cells (var. Black Mexican Sweet); experiment: Growth inhibition of suspension-cultured corn cells; type: cell-based, corn (maize); details: for growth inhibition activity (comparison in words): four days; for inhibition at 0.33 µM / pIC50: Zea mays, 96 h; for inhibition at 0.33 µM: four day period, read-out: growth inhibition relative to the control; for pIC50: four days after addition, read-out: concentration required for 50% inhibition of growth
[3] = tested on: suspension-cultured corn cells; experiment: Medium pH changes in corn cell suspension cultures; type: cell-based, corn (maize); details: 10 μM solution
Method: Cell growth was measured by the change in fresh weight over a 4-day period, as previously described (Balsevich et al.^6, 1994). The medium pH changes associated with addition of (+)-ABA and (+)-8'-methylene ABA were also measured as described by Balsevich et al.^6, (1994).

[4] = tested on: cress seed; experiment: Cress seed germination inhibition; type: in vivo; details: for germination of cress seed: 5 μM (printed 5 M)
Method: The experimental conditions were as follows: 100 seeds are placed on a 9 cm Whatman no. 1 filter paper in a petri dish and treated with 5 ml of solution.
The final concentration of the ethanol in the assay solutions was <0.05%. Assays were conducted with 100 seeds in each Petri dish and performed in triplicate. The germination measurements were based on the growth of the primary root. A seed was considered germinated when the radical was approximately the same length as the seed.

[5] = tested on: excised wheat embryos; experiment: Wheat embryo germination inhibition; type: in vivo, Triticum aestivum L. cv. Clark's Cream; details: for concentration giving equivalent germination inhibition: (+)-8'-methylene ABA versus (+)-ABA (FIG. 12)
Method: Grains of soft white wheat (Triticum aestivum L. cv. Clark's Cream) were used. For bioassay, embryos with some adhering endosperm and pericarp attached were cut from the grains with a razor blade. Analogs were prepared by dissolving into a minimal amount of DMSO to prepare a 0.1 M solution, and then diluted with […], pH 5.8, to 0.01, 0.1, 1, 10 and 100 μM. For each analog concentration six replicate germination assays were conducted on 10 embryos each at 30° C. Embryos were incubated in Petri dishes (100×15 mm) containing 6 ml solution.

[6] = tested on: ABA-responsive cor6.6 promoter; experiment: ABA-inducible gene expression (GUS activity) in transgenic tobacco seedlings containing Pcor6.6-GUS; type: in vivo, transgenic tobacco (promoter from Arabidopsis thaliana); details: 24 hours; for induction of GUS activity: 200 micromolar, relative to untreated control
Excerpt: The results shown are an average of duplicate assays on samples containing 34 seedlings.
The results shown are an average of duplicate samples containing cotyledons from 34 seedlings.

[7] = tested on: corn cells; experiment: Depletion (persistence) from corn cell culture media; type: in vitro ADME, corn (maize)
Method: Ethanolic stock solutions of (+)-ABA, (+)-8'-methylene ABA and (+)-8'-methyl ABA were added to flasks containing 0.2 g of corn cells and 10 ml of culture medium to obtain a final concentration of 100 μM of hormone or analog. Aliquots of medium (100 μl) were removed at intervals and analyzed for ABA or ABA analog content by HPLC as described previously (Balsevich et al.^6, 1994). Each compound was inoculated into 3 flasks and duplicate samples were removed at the indicated time points. The corn cells were used 1 or 2 days after subculturing.

[8] = tested on: Black Mexican Sweet maize cells; experiment: Metabolites from maize suspension cells; type: in vitro ADME; details: 100 μM, 90 h
Method: Eighteen g of Black Mexican Sweet maize cells were subcultured into a 1L flask containing 500 ml sterile medium as described previously (Balsevich et al.^6, 1994). […] At the end of the culture period, the cells were removed by filtration. The filtrate was frozen until processed for isolation.
The metabolites were extracted from the culture filtrate by a chromatographic procedure using Supelco Amberlite XAD-2 resin (Balsevich et al. 6, 1994). The crude product isolated from the resin was partially purified by preparative TLC (silica gel 60 GF254, 20 cm×20 cm×1 mm, toluene-EtOAc-HOAc 25:15:2 as eluent), giving two isomeric acids, The acids were separately reacted with diazomethane, and then further purified by HPLC as their methyl esters yielding approx. 0.5 mg of each metabolite.

[9] = ABA-like (hormonal) activity in various assays; set-up: species or system plants; details: wheat and cress
[10] = tested on: suspension-cultured corn cells (var. Black Mexican Sweet); details: Balsevich et al 1994, cited from earlier work
[11] = tested on: suspension-cultured corn cells; details: Balsevich et al 1994, cited from earlier work
[12] = tested on: excised wheat embryos; details: Walker-Simmons et al., 1992, cited from earlier work

## C=CC1(C)CC(=O)C=C(C)C1(O)/C=C/C(C)=C\C(=O)OC (single isomer, unassigned; (+)) [(+)-9'-ethylene methyl ABA]
[1]
  reduction in transpiration: Equivalent high activity

## C#CC1(C)CC(=O)C=C(C)C1(O)C=CC(C)=CC(=O)O (stereo not shown) [8'-acetylene ABA]
[2]
  growth inhibition activity (comparison in words): more potent than ABA

## C=C[C@@]1(C)CC(=O)C=C(C)[C@]1(O)/C=C/C(C)=C\C(=O)O [(+)-8'-methylene ABA, (+) 8'-methyleneabscisic acid]
[2]
  inhibition at 0.33 µM: 64%
  pIC50: > 6.48
  growth inhibition activity (comparison in words): stronger growth inhibition activity than (+)-ABA at all tested concentrations; also recorded: more effective than ABA
[2]; listed as 8'-methylene ABA
  growth inhibition activity (comparison in words): the strongest growth inhibition produced by any ABA analog so far
[2]; listed as (+)-methylene ABA
  growth inhibition activity (comparison in words): significantly stronger than either (+)-ABA or (+)-8'-methyl ABA
[3]
  shift in pH of the medium: causes a comparable shift in pH as that produced by ABA
[3]; listed as (+)- 8'-methylene ABA
  shift in pH of the medium: causes as great a shift in pH as ABA
[1]
  reduction of transpiration (summary in words): more effective than ABA
[4]; 1 μM
  germination inhibition of cress seed: more potent than ABA
[4]
  germination of cress seed: does not germinate
[4]; listed as 8'-Methylene analog
  germination of cress seed: remain dormant
[4]; in vivo
  germination inhibition of cress seed (summary in words): more effective than ABA
[5]
  concentration giving equivalent germination inhibition: 1.0 µM
[5]; embryos from dormant wheat grains (FIG. 12)
  times more effective than natural ABA, germination inhibition of excised wheat embryos: at least 10 times
[5]; in vivo
  germination inhibitory activity, wheat embryos (in words): more active than (+)-ABA; also recorded: most potent compound over all concentrations and time points; also recorded: more effective than ABA
[6]; 100 μM
  induction of ABA-responsive gene expression (in words): slightly weaker inducer than ABA; also recorded: highly effective in inducing ABA-responsive gene expression
[6]
  induction of GUS activity: strongly induced GUS activity
[7]; corn, corn cell culture medium, 100 µM
  time by which 50% had disappeared from the medium: ~100 h
[8]
  metabolites identified: two isomeric epoxides
[9]
  germination inhibition in seeds of both a monocot and a dicot: more effective germination inhibitor in seeds of both a monocot and a dicot

## CC1=CC(=O)CC(C)(C)[C@@]1(O)/C=C/C(C)=C\C(=O)O [(+)-ABA, abscisic acid]
[2]
  inhibition at 0.33 µM: 17%
  pIC50: ~5.00
[4]
  germination of cress seed: begins to germinate
[5]
  concentration giving equivalent germination inhibition: 10 µM
[6]
  induction of GUS activity: strongly induced GUS activity
[7]; initial 100 μM, corn cell culture (FIG. 10)
  time by which 50% had disappeared from the medium: ≤ 24 h
[10]
  growth inhibition (literature): inhibits growth of maize suspension-cultured cells over a four day period
[10]; listed as Natural ABA
  growth inhibition (literature): causes growth inhibition
[11]; listed as Natural ABA
  shift (elevation) in pH of the medium (literature): causes a transient elevation of pH of the corn cell culture medium; also recorded: causes a shift in the pH of the medium of cultured corn cells
[11]; after ABA addition
  time of maximum of transient elevation of medium pH: about 6 h
[12]
  germination inhibitory activity, wheat embryos (literature): equally effective in inhibiting germination
[12]; listed as ABA
  germination inhibitory activity, wheat embryos (literature): both enantiomers of ABA were equally effective

## CC1=CC(=O)CC(C)(C)[C@]1(O)/C=C/C(C)=C\C(=O)O [(-)-ABA]
[11]
  shift (elevation) in pH of the medium (literature): only weakly
[12]
  germination inhibitory activity, wheat embryos (literature): equally effective in inhibiting germination

## COC(=O)/C=C(C)\C=C\[C@@]1(O)C(C)=CC(=O)CC1(C)C [compound 214]
[1]
  reduction in transpiration: Equivalent high activity
[1]; methyl ester, unit M
  pEC50: 4.30 to 4.60

## C=C[C@@]1(C)CC(=O)C=C(C)[C@]1(O)/C=C/C(C)=C\C(=O)OC [compound 357, (+) Methyl 8'-methyleneabscisate]
[1]; methyl esters
  pEC50: 5.00 to 5.30
[1]
  reduction of transpiration (summary in words): most active analog

## CC[C@@]1(C)CC(=O)C=C(C)[C@]1(O)/C=C/C(C)=C\C(=O)OC [compound 370]
[1]; methyl esters
  pEC50: 4.00
[1]
  reduction of transpiration (summary in words): relatively weak in this assay
[1]; methyl esters, (+)-forms, 10 μM, 3 hours (FIG. 4)
  % transpiration effect (comparison in words): not as active as the vinyl analog
